Target: T1, human PPARα (Homo sapiens, UniProt Q07869)
T1 construct: expressed in transfected cells; host or cells: CHO-K1
T1 sequence (Q07869 239-466 limits assumed): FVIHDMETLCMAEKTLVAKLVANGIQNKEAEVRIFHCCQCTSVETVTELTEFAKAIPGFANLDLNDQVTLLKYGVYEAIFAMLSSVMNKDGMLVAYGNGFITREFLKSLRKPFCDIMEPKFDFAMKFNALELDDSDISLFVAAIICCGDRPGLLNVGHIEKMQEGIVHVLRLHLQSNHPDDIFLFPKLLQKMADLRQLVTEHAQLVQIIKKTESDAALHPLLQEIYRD
Experiment: Activation of human PPARα: GAL4-PPARα LBD luciferase reporter transactivation in CHO-K1 cells
Assay type: cell-based
Details: CHO-K1 cells co-transfected with GAL4 DNA-binding domain/human PPARα ligand-binding domain fusion, firefly luciferase reporter normalized to Renilla; 20 hours with test compound
From the text: Activation of Human Peroxisome Proliferator-Activated Receptor α (PPARα)
CHO-K1 cells cultured in Ham's F12 medium supplemented with 10% fetal calf serum (FCS) were co-transfected with a receptor-expression plasmid engineered to express a fusion protein in which the DNA-binding domain of yeast transcription factor GAL4 is fused to the ligand-binding domain of human PPARα (Biochemistry, 1993, 32, 5598), a reporter plasmid (firefly luciferase reporter plasmid, STRATAGENE) and a Renilla luciferase reporter plasmid as an internal control. The plasmids were co-transfected for 2 hours in serum-free medium using Lipofectamine (Invitrogen). Subsequently, the cells were cultured at 37° C. for 20 hours in Ham's F12 medium supplemented with 10% defatted bovine serum and a test compound. The activity of the two luciferases was then measured and firefly luciferase activity was normalized to the internal control Renilla luciferase activity.

For Cc1nc(-c2ccc(Cl)cc2)sc1C(=O)NCC1CCCN(c2ccccc2CC(=O)O)C1 (stereo not shown) [Example 8, 2-[3-[[2-(4-chlorophenyl)-4-methylthiazol-5-yl]carbonylaminomethyl]piperidin-1-yl]phenylacetic Acid], the EC50 was 0.0001 µM.
Compound Cc1nc(-c2ccc(Cl)cc2)sc1C(=O)NCC1CCCN(c2cccc(CC(=O)O)c2)C1 (stereo not shown) [Example 9, 3-[3-[[2-(4-chlorophenyl)-4-methylthiazol-5-yl]carbonylaminomethyl]piperidin-1-yl]phenylacetic acid] has an EC50 of 0.045 µM.
Cc1nc(-c2ccc(Cl)cc2)sc1C(=O)NC1CCCN(c2cccc(CC(=O)O)c2)C1 (stereo not shown) [Example 11, 3-[3-[[2-(4-chlorophenyl)-4-methylthiazol-5-yl]carbonylamino]piperidin-1-yl]phenylacetic acid] showed an EC50 of 0.037 µM.
Work on Cc1nc(-c2ccc(Cl)cc2)sc1C(=O)NC1CCCN(c2cccc(OC(C)(C)C(=O)O)c2)C1 (stereo not shown) [Example 14, 2-[3-[3-[[2-(4-chlorophenyl)-4-methylthiazol-5-yl]carbonylamino]piperidin-1-yl]phenoxy]-2-methylpropionic acid] yielded an EC50 of 0.067 µM.

Source: patent US20090036489A1, “Novel Cyclic Aminophenylalkanoic Acid Derivative” (priority 2005, published 2009)
